# Laboratory results as given in patent US20030191088A1, “Novel therapeutic agents interfering in neutrophil migration” (priority 1998, published 2003).
# Columns and labels:
# neutrophils = settings: cited from earlier work
# [1] = molecular target: CD18 (β subunit of LFA-1) (Homo sapiens, UniProt P05107); settings: cited from earlier work
# healthy rabbits = assay: Animal toxicity of intravenous GXM in healthy rabbits; assay type: in vivo; settings: intravenous administration, doses ranging from 0.5 to 50 mg
# Description: In experiments, it was investigated whether GXM is toxic in healthy animals.
# neutrophil L-selectin = settings: cited from earlier work
# pneumococcal meningitis = pneumococcal meningitis model in rabbits, intravenous GXM; assay type: in vivo
# [2] = purified form; cited from earlier work
# [3] = system: neutrophil migration (chemotaxis) towards IL-8; settings: in vitro, GXM added directly to the leukocytes; cited from earlier work
# [4] = pneumococcal meningitis rabbit model, i.v. administration
# [5] = rabbits, intravenous administration, in comparison to control rabbits
# Chain of CD18 (β subunit of LFA-1) (P05107 23-769): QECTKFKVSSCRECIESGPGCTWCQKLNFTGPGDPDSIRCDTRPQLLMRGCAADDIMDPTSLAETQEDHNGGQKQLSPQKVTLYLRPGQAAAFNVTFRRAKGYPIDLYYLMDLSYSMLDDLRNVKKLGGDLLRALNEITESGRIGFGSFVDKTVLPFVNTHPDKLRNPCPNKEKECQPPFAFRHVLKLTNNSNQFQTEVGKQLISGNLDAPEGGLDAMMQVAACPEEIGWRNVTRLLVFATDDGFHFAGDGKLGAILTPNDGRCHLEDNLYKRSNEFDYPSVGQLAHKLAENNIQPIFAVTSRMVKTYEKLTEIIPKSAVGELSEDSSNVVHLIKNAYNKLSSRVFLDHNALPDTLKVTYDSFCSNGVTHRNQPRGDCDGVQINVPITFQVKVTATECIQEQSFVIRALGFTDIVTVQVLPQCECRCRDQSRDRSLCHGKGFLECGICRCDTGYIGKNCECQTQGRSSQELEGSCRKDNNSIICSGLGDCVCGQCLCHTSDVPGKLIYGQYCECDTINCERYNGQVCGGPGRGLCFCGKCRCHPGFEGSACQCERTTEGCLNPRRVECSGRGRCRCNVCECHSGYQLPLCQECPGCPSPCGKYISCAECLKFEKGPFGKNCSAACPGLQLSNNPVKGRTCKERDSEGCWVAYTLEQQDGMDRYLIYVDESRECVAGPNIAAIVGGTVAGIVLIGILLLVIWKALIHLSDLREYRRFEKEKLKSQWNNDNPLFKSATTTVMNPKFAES
substance,measurement,setting,value
glucuronoxylomannan [GXM],attraction of neutrophils,neutrophils,attract neutrophils itself
same,binding to CD18,[1],can bind to CD18
same,tolerability in healthy rabbits,healthy rabbits,tolerated
same,shedding of neutrophil L-selectin,neutrophil L-selectin,can induce shedding of neutrophil L-selectin
same,toxicity and tolerability in the pneumococcal meningitis rabbit model,pneumococcal meningitis; i.v. administration,non-toxic and well tolerated
same,GXM in CSF,pneumococcal meningitis; [4],detectable
same,brain toxicity,pneumococcal meningitis; [4],No demonstrable brain toxicity
same,TNF-α levels in the CSF,pneumococcal meningitis; [5],reduces TNF-α levels in the CSF
same,entry of leukocytes (PMN) into the CSF and brain,pneumococcal meningitis; [5],delays entry of leukocytes (PMN) into the CSF and brain
same,protection of the brain against damage,pneumococcal meningitis; [5],protects the brains of these rabbits against damage
same,immunogenicity,[2],poorly immunogenic
same,interference with neutrophil migration (chemotaxis) towards IL-8,[3],interferes with neutrophil migration (chemotaxis) towards IL-8
